Tested on: Danio rerio larvae Tg(actc1b:ZsGreen-LC3), 3 dpf
Experiment: LC3 puncta relative area vs vehicle (mean) (log2 fold change); higher = more autophagy
Settings: treatment time 16 h
Protocol: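 Transgenic ZsGreen-LC3 zebrafish larvae (2 dpf) were treated for 16 h with natural bioactives at 10, 50, 100 or 250 µM. Skeletal-muscle LC3 puncta area was measured by high-content imaging with or without 4 h of 100 mM NH4Cl, normalised to vehicle, and reported as the mean log2 fold change over 4–21 larvae.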

O=C(O)CCC(=O)O [Succinic acid]
LC3 puncta (log2) (NH4Cl: + NH4Cl, 10 µM): 0.752
LC3 puncta (log2) (NH4Cl: + NH4Cl, 50 µM): 0.769
LC3 puncta (log2) (NH4Cl: + NH4Cl, 100 µM): 0.297
LC3 puncta (log2) (NH4Cl: + NH4Cl, 250 µM): 0.806
LC3 puncta (log2) (NH4Cl: - NH4Cl, 10 µM): 0.044
LC3 puncta (log2) (NH4Cl: - NH4Cl, 50 µM): 0.06
LC3 puncta (log2) (NH4Cl: - NH4Cl, 100 µM): -0.705
LC3 puncta (log2) (NH4Cl: - NH4Cl, 250 µM): -0.0293

O=C1C[C@H](O)[C@@H](CO)O1 [2-deoxyribonolactone]
LC3 puncta (log2) (NH4Cl: + NH4Cl, 10 µM): 0.749
LC3 puncta (log2) (NH4Cl: + NH4Cl, 50 µM): 0.4
LC3 puncta (log2) (NH4Cl: + NH4Cl, 100 µM): 0.746
LC3 puncta (log2) (NH4Cl: + NH4Cl, 250 µM): 0.616
LC3 puncta (log2) (NH4Cl: - NH4Cl, 10 µM): 0.195
LC3 puncta (log2) (NH4Cl: - NH4Cl, 50 µM): -0.131
LC3 puncta (log2) (NH4Cl: - NH4Cl, 100 µM): 0.251
LC3 puncta (log2) (NH4Cl: - NH4Cl, 250 µM): -0.0832

CCCC(=O)[O-].[Na+] [Butyric acid sodium salt]
LC3 puncta (log2) (NH4Cl: + NH4Cl, 10 µM): 0.256
LC3 puncta (log2) (NH4Cl: + NH4Cl, 50 µM): 0.65
LC3 puncta (log2) (NH4Cl: + NH4Cl, 100 µM): 0.615
LC3 puncta (log2) (NH4Cl: + NH4Cl, 250 µM): 0.513
LC3 puncta (log2) (NH4Cl: - NH4Cl, 10 µM): 0.036
LC3 puncta (log2) (NH4Cl: - NH4Cl, 50 µM): 0.362
LC3 puncta (log2) (NH4Cl: - NH4Cl, 100 µM): 0.26
LC3 puncta (log2) (NH4Cl: - NH4Cl, 250 µM): -0.0615

C/C1=C2N=C(/C=C3N=C(/C(C)=C4\[N-]C(C(CC(N)=O)C4(C)CCC(=O)NCC(C)OP(=O)([O-])OC4C(CO)OC(n5cnc6cc(C)c(C)cc65)C4O)C4(C)N=C1C(CCC(N)=O)C4(C)CC(N)=O)C(CCC(N)=O)C\3(C)C)C(CCC(N)=O)C/2(C)CC(N)=O.[CH3-].[Co+3] (stereo not drawn) [Methylcobalamin]
LC3 puncta (log2) (NH4Cl: + NH4Cl, 10 µM): 0.507
LC3 puncta (log2) (NH4Cl: + NH4Cl, 50 µM): 0.557
LC3 puncta (log2) (NH4Cl: + NH4Cl, 100 µM): 0.386
LC3 puncta (log2) (NH4Cl: + NH4Cl, 250 µM): -0.454
LC3 puncta (log2) (NH4Cl: - NH4Cl, 10 µM): -0.125
LC3 puncta (log2) (NH4Cl: - NH4Cl, 50 µM): -0.236
LC3 puncta (log2) (NH4Cl: - NH4Cl, 100 µM): 0.239
LC3 puncta (log2) (NH4Cl: - NH4Cl, 250 µM): -0.503

CC(C)C[C@H](N)C(=O)O [L-Leucine]
LC3 puncta (log2) (NH4Cl: + NH4Cl, 10 µM): 0.433
LC3 puncta (log2) (NH4Cl: + NH4Cl, 50 µM): 0.183
LC3 puncta (log2) (NH4Cl: + NH4Cl, 100 µM): 0.128
LC3 puncta (log2) (NH4Cl: + NH4Cl, 250 µM): -0.405
LC3 puncta (log2) (NH4Cl: - NH4Cl, 10 µM): -0.25
LC3 puncta (log2) (NH4Cl: - NH4Cl, 50 µM): -0.762
LC3 puncta (log2) (NH4Cl: - NH4Cl, 100 µM): -0.689
LC3 puncta (log2) (NH4Cl: - NH4Cl, 250 µM): -0.726

C[n+]1cccc(C(=O)[O-])c1 [Trigonelline]
LC3 puncta (log2) (NH4Cl: + NH4Cl, 10 µM): 0.266
LC3 puncta (log2) (NH4Cl: + NH4Cl, 50 µM): 0.266
LC3 puncta (log2) (NH4Cl: + NH4Cl, 100 µM): 0.112
LC3 puncta (log2) (NH4Cl: - NH4Cl, 10 µM): 0.202
LC3 puncta (log2) (NH4Cl: - NH4Cl, 50 µM): 0.619
LC3 puncta (log2) (NH4Cl: - NH4Cl, 100 µM): 0.435
LC3 puncta (log2) (NH4Cl: - NH4Cl, 250 µM): -0.0876

C/C=C\C=C\C(=O)O [(2E,4Z)-2,4-hexadienoic acid]
LC3 puncta (log2) (NH4Cl: + NH4Cl, 10 µM): 0.772
LC3 puncta (log2) (NH4Cl: + NH4Cl, 50 µM): 1.14
LC3 puncta (log2) (NH4Cl: + NH4Cl, 100 µM): 1.21
LC3 puncta (log2) (NH4Cl: + NH4Cl, 250 µM): 0.824
LC3 puncta (log2) (NH4Cl: - NH4Cl, 10 µM): 0.44
LC3 puncta (log2) (NH4Cl: - NH4Cl, 50 µM): -0.191
LC3 puncta (log2) (NH4Cl: - NH4Cl, 100 µM): 1.17
LC3 puncta (log2) (NH4Cl: - NH4Cl, 250 µM): -0.266

O=C(O)c1cccnc1 [Nicotinic acid]
LC3 puncta (log2) (NH4Cl: + NH4Cl, 10 µM): 0.718
LC3 puncta (log2) (NH4Cl: + NH4Cl, 50 µM): 0.758
LC3 puncta (log2) (NH4Cl: + NH4Cl, 100 µM): 0.79
LC3 puncta (log2) (NH4Cl: + NH4Cl, 250 µM): 0.941
LC3 puncta (log2) (NH4Cl: - NH4Cl, 10 µM): 0.0747
LC3 puncta (log2) (NH4Cl: - NH4Cl, 50 µM): 0.284
LC3 puncta (log2) (NH4Cl: - NH4Cl, 100 µM): 0.456
LC3 puncta (log2) (NH4Cl: - NH4Cl, 250 µM): 0.418

CC(C)CC(O)C(=O)O (stereo not drawn) [2-Hydroxyisocaproic acid]
LC3 puncta (log2) (NH4Cl: + NH4Cl, 10 µM): 0.569
LC3 puncta (log2) (NH4Cl: + NH4Cl, 50 µM): 1.04
LC3 puncta (log2) (NH4Cl: + NH4Cl, 100 µM): 1.46
LC3 puncta (log2) (NH4Cl: + NH4Cl, 250 µM): 1.21
LC3 puncta (log2) (NH4Cl: - NH4Cl, 10 µM): -0.489
LC3 puncta (log2) (NH4Cl: - NH4Cl, 50 µM): 0.415
LC3 puncta (log2) (NH4Cl: - NH4Cl, 100 µM): 0.346
LC3 puncta (log2) (NH4Cl: - NH4Cl, 250 µM): 0.416

O=C(O)CC(O)C(=O)O (stereo not drawn) [Malic acid]
LC3 puncta (log2) (NH4Cl: + NH4Cl, 10 µM): 0.364
LC3 puncta (log2) (NH4Cl: + NH4Cl, 50 µM): 0.607
LC3 puncta (log2) (NH4Cl: + NH4Cl, 100 µM): 0.449
LC3 puncta (log2) (NH4Cl: + NH4Cl, 250 µM): 0.554
LC3 puncta (log2) (NH4Cl: - NH4Cl, 10 µM): -0.0981
LC3 puncta (log2) (NH4Cl: - NH4Cl, 50 µM): -0.0981
LC3 puncta (log2) (NH4Cl: - NH4Cl, 100 µM): -0.0374
LC3 puncta (log2) (NH4Cl: - NH4Cl, 250 µM): -0.0364

Cc1ccc(C(C)C)cc1O [Carvacrol]
LC3 puncta (log2) (NH4Cl: + NH4Cl, 10 µM): 0.565
LC3 puncta (log2) (NH4Cl: + NH4Cl, 50 µM): 1.07
LC3 puncta (log2) (NH4Cl: + NH4Cl, 100 µM): 1.84
LC3 puncta (log2) (NH4Cl: + NH4Cl, 250 µM): 1.67
LC3 puncta (log2) (NH4Cl: - NH4Cl, 10 µM): 0.493
LC3 puncta (log2) (NH4Cl: - NH4Cl, 50 µM): 0.93
LC3 puncta (log2) (NH4Cl: - NH4Cl, 100 µM): 1.08
LC3 puncta (log2) (NH4Cl: - NH4Cl, 250 µM): 1.92

CC1=C(/C=C/C(C)=C/C=C/C(C)=C/C=C/C=C(C)/C=C/C=C(C)/C=C/C2=C(C)CCCC2(C)C)C(C)(C)CCC1 [beta-Carotene]
LC3 puncta (log2) (NH4Cl: + NH4Cl, 10 µM): 0.44
LC3 puncta (log2) (NH4Cl: + NH4Cl, 50 µM): 0.208
LC3 puncta (log2) (NH4Cl: + NH4Cl, 100 µM): 0.299
LC3 puncta (log2) (NH4Cl: + NH4Cl, 250 µM): 1.2
LC3 puncta (log2) (NH4Cl: - NH4Cl, 10 µM): 0.227
LC3 puncta (log2) (NH4Cl: - NH4Cl, 50 µM): -0.273
LC3 puncta (log2) (NH4Cl: - NH4Cl, 100 µM): 0.207
LC3 puncta (log2) (NH4Cl: - NH4Cl, 250 µM): 0.305

NC(=O)c1cccnc1 [Nicotinamide NAM]
LC3 puncta (log2) (NH4Cl: + NH4Cl, 10 µM): 0.821
LC3 puncta (log2) (NH4Cl: + NH4Cl, 50 µM): 0.328
LC3 puncta (log2) (NH4Cl: + NH4Cl, 100 µM): 0.663
LC3 puncta (log2) (NH4Cl: + NH4Cl, 250 µM): 0.606
LC3 puncta (log2) (NH4Cl: - NH4Cl, 10 µM): -0.196
LC3 puncta (log2) (NH4Cl: - NH4Cl, 50 µM): -0.178
LC3 puncta (log2) (NH4Cl: - NH4Cl, 100 µM): 0.12
LC3 puncta (log2) (NH4Cl: - NH4Cl, 250 µM): -0.631

From the supplement of paper PMC12532568
